From US20180203014A1, “COMPOSITIONS FOR DETECTING CIRCULATING INTEGRIN BETA-3 BIOMARKER AND METHODS FOR DETECTING CANCERS AND ASSESSING TUMOR PRESENCE OR PROGRESSION, CANCER DRUG RESISTANCE AND TUMOR STEMNESS” (The Regents of the University of California, priority 2015, published 2018)
Entries after “also recorded” stand apart in the source; their conditions may differ.

What was measured:
[1] = test system: β3-positive cells (FG-β3, MDA-MB231, FG-R); assay: Anchorage independent growth in soft agar, NFkB inhibitors with erlotinib (FIG. 31); assay type: cell-based, human; conditions: Lenalidomide 2 μM, PS-1145 1 μM, 10 to 15 days; for response of colonies / tumorsphere formation to single agent: β3-positive cells (intrinsic or acquired resistant), each agent alone: erlotinib 0.5 μM; for tumorsphere formation, combination with erlotinib: β3-positive cells, in combination with erlotinib 0.5 μM
Source text: Then, the soft agar were stained with crystal violet and the colonies were counted manually.

[2] = test system: panel of human carcinoma cell lines; assay: Tumorsphere assay (Example 2); assay type: cell-based; conditions: for tumorsphere formation in vitro, combination with erlotinib: β3-positive cells (FG-β3, PANC-1, A549), erlotinib 0.5 μM with lenalidomide 1-2 μM or bortezomib 4 nM; for impact of integrin β3 expression on resistance: β3-negative vs β3-positive cells
Protocol: Tumorsphere assay was performed as previously described (10). […] The media was replaced with fresh inhibitor 2/6 times a week. Survival curves were generated at least with five concentration points.

[3] = test system: subcutaneous β3-positive tumors (FG-β3, FG-R); assay: Subcutaneous β3-positive tumors in mice; conditions: for tumor growth, monotherapy: lenalidomide 25 mg/kg/day or bortezomib 0.25 mg/kg alone; for tumor growth in vivo, combination with erlotinib: with erlotinib 25 mg/kg/day, lenalidomide 25 mg/kg/day (FG-β3) or bortezomib 0.25 mg/kg (FG-R)
Protocol: FG pancreatic carcinoma cells (1×10^6 tumor cells in 30 μl of PBS) were injected into the pancreas of 6- to 8-week-old male nude mice as previously described (10). Tumors were established for 2-3 weeks (tumor sizes were monitored by ultrasound) before beginning dosing. […] FG pancreatic carcinoma cells (1×10^6 tumor cells in 30 μl of PBS) were injected into the pancreas of 6- to 8-week-old male nude mice as previously described (10). Tumors were established for 2-3 weeks (tumor sizes were monitored by ultrasound) before beginning dosing. […] Tumors were measured every 2-3 days with calipers until they were harvested at day 10,16 or after acquired resistance.
Tumor dimensions are reported as the fold change relative to size of the same tumor on Day 1. Mean±SEM, (A) *P=0.042 using a one way ANOVA test. n=6 mice per group. […] Tumor dimensions are reported as the fold change relative to size of the same tumor on Day 1. *P=0.0134 using a one way ANOVA test. n=8 mice per group.

FG and FG-β3 cells = assay: Tumor sphere formation assay (Example 1); assay type: cell-based, human; conditions: for effect of αvβ3 expression on drug resistance (tumor sphere formation): FG lacking β3 vs FG-β3, in vitro
Protocol: (§1) Tumor spheres formation assays were performed essentially as described previously^17. […] Colonies were stained with crystal violet and scored with an Olympus SZH10 microscope. Survival curves were generated at least with five concentration points.

[4] = test system: β3-positive and β3-negative tumor cells (FG, PANC-1); assay: Self renewal tumorsphere assay and soft agar assay, 3D (Example 3); assay type: cell-based, human; conditions: β3 ectopic expression (FG) or knockdown (PANC-1)
Protocol: Tumorsphere assay was performed as previously described. Soft agar formation assays were performed essentially as described previously. […] The media was replaced with fresh inhibitor 2/5 times a week. Survival curves were generated at least with five concentration points. […] Cells were treated with a dose response of gemcitabine, cisplatin, erlotinib, lapatinib and linsitinib. […] Tumor volumes are expressed as mean±SEM. *P<0.05. […] Results are expressed as % tumor weight compared to vehicle control. *P<0.05. […] Data are mean±SE; **P<0.001. […] Scale bar, 50 μm.

PANC-1 cells = assay: Tumor sphere formation assay, knockdown of αvβ3 (Example 1); assay type: cell-based, human
Protocol: as §1, with “previously^17. Briefly, cells were seeded at 1000 to 2000 cells per well and grown for 12 days to 3 weeks.” for “previously^17.”

[5] = test system: orthotopic FG pancreatic tumors; assay: Orthotopic pancreas cancer xenograft model; assay type: in vivo, mice
Protocol: All mouse experiments were carried out in accordance with approved protocols from the UCSD animal subjects committee and with the guidelines set forth in the NIH Guide for the Care and Use of Laboratory Animals. Tumors were generated by injection of FG human pancreatic carcinoma cells (10^6 tumor cells in 30 μL of sterile PBS) into the tail of the pancreas of 6-8 week old male immune compromised nu/nu mice.
Tumors were generated as previously described (JAY).

[6] = test system: H441 human lung adenocarcinoma orthotopic tumors; assay: Orthotopic lung cancer xenograft model; assay type: in vivo, mice
Protocol: FG pancreatic carcinoma cells (1×10^6 tumor cells in 30 μl of PBS) were injected into the pancreas of 6- to 8-week-old male nude mice as previously described (10). Tumors were established for 2-3 weeks (tumor sizes were monitored by ultrasound) before beginning dosing. […] H441 lung adenocarcinoma cells were generated as previously described (21). […] FG pancreatic carcinoma cells (1×10^6 tumor cells in 30 μl of PBS) were injected into the pancreas of 6- to 8-week-old male nude mice as previously described (10). Tumors were established for 2-3 weeks (tumor sizes were monitored by ultrasound) before beginning dosing. […] H441 lung adenocarcinoma cells were generated as previously described (21). […] Tumors were measured every 2-3 days with calipers until they were harvested at day 10,16 or after acquired resistance.

[7] = test system: phosphorylated TBK1 and NF-κB; assay: Immunoblot analysis of RalB effectors in cells grown in suspension and treated with erlotinib; assay type: cell-based, human; conditions: αvβ3 negative cells, erlotinib 0.5 μM
Protocol: Cells were lysed in either RIPA lysis buffer (50 mM Tris pH 7.4, 100 mM NaCL, 2 mM EDTA, 10% DOC, 10% Triton, 0.1% SDS) or Triton lysis buffer (50 mM Tris pH 7.5, 150 mN NaCl, 1 mM EDTA, 5 mM MgCl2, 10% Glycerol, 1% Triton) supplemented with complete protease and phosphatase inhibitor mixtures (Roche) and centrifuged at 13,000 g for 10 min at 4° C. Protein concentration was determined by BCA assay. 500 μg to 1 mg of protein were immunoprecipitated with 3 μg of anti-integrin αvβ-3 (LM609) overnight at 4° C. following by capture with 25 μl of protein A/G (Pierce). Beads were washed five times, eluted in Laemmli buffer, resolved on NuPAGE 4-12% Bis-Tris Gel (Invitrogen) and immunoblotting was performed with anti-integrin β3 (Santa Cruz), anti-RalB (Cell Signaling Technology), anti KRAS (Santa Cruz). For immunoblot analysis, 25 of protein was boiled in Laemmli buffer and resolved on 8% to 15% gel. […]

[8] = test system: stage IV non-small cell lung cancer; assay: Serial biopsies from NSCLC patients on erlotinib therapy; assay type: in vivo, human
Protocol: All biopsies are from lung or pleural effusion. […] This work was approved by the UCSD Institutional Review Board (IRB).
Immunostaining was performed according to the manufacturer's recommendations (Vector Labs) on […] sections of paraffin-embedded tumors from tumor biopsies from lung cancer patients. Tumor sections were processed as previously described (23) using integrin β3 (Abcam clone EP2417Y). Sections stained with integrin β3 were scored by a H-score according to the staining intensity (SI) on a scale 0 to 3 within the whole tissue section.

[9] = test system: HCC827 human lung cancer cells; assay: Circulating tumor cells from orthotopic HCC827 lung tumors (FIG. 30); assay type: in vivo, mice; conditions: orthotopic HCC827, 3 months at 25 mg/kg/day
Source text: FIG. 30 illustrates data showing integrin β3 (CD61) is a RTKI (Receptor Tyrosine Kinase (RTK) Inhibitor) drug resistance biomarker on the surface of circulating tumor cells; as discussed in detail in Example 2, below.

HCC827 xenograft tumors = HCC827 xenograft tumors treated until acquired resistance; assay type: in vivo, mice; conditions: erlotinib 12.5 mg/kg/day until acquired resistance
Source text: Tumor volumes are expressed as mean±SEM. *P<0.05. […] Results are expressed as % tumor weight compared to vehicle control. *P<0.05. […] Data are mean±SE; **P<0.001. […] Scale bar, 50 μm.

integrin αvβ3 (CD61) = assay: Flow cytometry of αvβ3 after prolonged EGFR TKI exposure in vitro; assay type: cell-based, human; conditions: FG, Miapaca-2 and other erlotinib sensitive lines, weeks of treatment
Protocol: Human pancreatic (FG, PANC-1, Miapaca-2 (MP2), CFPAC-1, XPA-1, CAPAN-1, BxPc3), breast (MDAMB231, MDAMB468 (MDA468), BT20, SKBR3, BT474), colon (SW480) and lung (A549, H441) cancer cell lines were grown in ATCC recommended media supplemented with 10% fetal bovine serum, glutamine and non-essential amino acids. We obtained FG-β3, FG-D119A mutant and PANC-shβ3 cells as previously described^17. […] Cisplatin was generated from Sigma-Aldrich. Lenalidomide was purchased from LC Laboratories.
200,000 cells, after drug or vehicle treatment, were washed with PBS and incubated for 20 minutes with the Live/Dead reagent (Invitrogen) according to the manufacturer's instruction, then, cells were fixed with 4% paraformaldehyde for 15 min and blocked for 30 min with 2% BSA in PBS. Cells were stained with fluorescent-conjugated antibodies to CD61 (LM609), CD44 (eBioscience), CD24 (eBioscience), CD34 (eBioscience), CD133 (Santa Cruz), CD56 (eBioscience), CD29 (P4C10) and CD49f (eBioscience). All antibodies were used at 1:100 dilutions, 30 minutes at 4° C. After washing several times with PBS, cells were analyzed by FACS.

[10] = test system: subcutaneous A549 xenografts; assay: Subcutaneous A549 xenografts, integrin β3 knockdown; assay type: in vivo, mice; conditions: A549 shCTRL vs sh β3, erlotinib 25 mg/kg/day, 16 days
Source text: (A) Immunoblots showing integrin β3 knockdown efficiency in cells used in FIG. 1. […] Tumor volumes are expressed as mean±SEM. n=8 mice per group. (C) Immunoblots showing expression of indicated proteins of representative tumors. […] (E) Effect of integrin β3 expression on lapatinib, OSI-906, cisplatin and gemcitabine n=3; mean±SEM. (F) Viability assay (CellTiter-Glo assay) of FG and FG-β3 cells grown in suspension in media with or without serum. n=2; mean+SEM. *P<0.05. **P<0.01.
(a) Effect of integrin β3 expression (ectopic expression for FG and integrin β3-specific knockdown for PANC-1) cells on drug treatment response. Cells were treated with a dose response of gemcitabine, cisplatin, erlotinib, lapatinib and linsitinib. […] Tumor volumes are expressed as mean±SEM. *P<0.05. […] Results are expressed as % tumor weight compared to vehicle control. *P<0.05. […] (f) Relative mRNA expression of integrin β3 (ITGB3) in HCC827 vehicle-treated tumors (n=5) or erlotinib-treated tumors (n=7) from (e) after acquired resistance. Data are mean±SE; **P<0.001. […] Scale bar, 50 μm. […] The HCC827 erlotinib-treated tumors have been digested and sorted in two groups: the integrin β3− and the integrin β3+ population.

[11] = systemic erlotinib treatment for 7-8 weeks

In the case of `Nc1cccc2c1CN(C1CCC(=O)NC1=O)C2=O` (racemic) [lenalidomide, (RS)-3-(4-amino-1-oxo-3H-isoindol-2-yl)piperidine-2,6-dione], the “response of colonies / tumorsphere formation to single agent” value [1] is reported as “resistant”, the “tumorsphere formation, combination with erlotinib” value [1] is reported as “decreased tumorsphere formation” and the “tumorsphere formation in vitro, combination with erlotinib” value [2] is reported as “decreased tumorsphere formation”. The “tumor growth, monotherapy” value [3] was “failed to impact tumor growth” and the “tumor growth in vivo, combination with erlotinib” value [3] was “completely suppressed tumor growth”.

With `C[C@]1(O)C[C@@H](c2nc(-c3ccc4ccc(-c5ccccc5)nc4c3)c3c(N)nccn32)C1` [OSI-906] the “effect of αvβ3 expression on drug resistance (tumor sphere formation)” value (from here on “effect of αvβ3 expression”) (FG and FG-β3 cells) was “induced resistance” and the “effect of β3 expression on drug response, cells growing in 3D” value (“effect of β3 expression on drug response” for short) [4] was “reduced sensitivity”.

For `O=C(Nc1cc(Cl)cc2c1[nH]c1cnccc12)c1cccnc1` [PS-1145], the “response of colonies / tumorsphere formation to single agent” value [1] was “resistant” and the “tumorsphere formation, combination with erlotinib” value [1] was “decreased tumorsphere formation”.

With `CC(C)C[C@H](NC(=O)[C@H](Cc1ccccc1)NC(=O)c1cnccn1)B(O)O` [bortezomib] the “tumorsphere formation in vitro, combination with erlotinib” value [2] was “decreased tumorsphere formation”, the “tumor growth, monotherapy” value [3] was “failed to impact tumor growth” and the “tumor growth in vivo, combination with erlotinib” value [3] was “completely suppressed tumor growth”.

In the case of `N.N.[Cl][Pt][Cl]` [cisplatin], the “effect of αvβ3 expression” value (FG and FG-β3 cells) is reported as “failed to protect cells”, the “impact of integrin β3 expression on resistance” value [2] is reported as “did not impact resistance” and the “effect of β3 expression on drug response” value [4] is reported as “did not impact the response”.

For `C#Cc1cccc(Nc2ncnc3cc(OCCOC)c(OCCOC)cc23)c1` [erlotinib, N-(3-ethynylphenyl)-6,7-bis(2-methoxyethoxy) quinazolin-4-amine], the “response of colonies / tumorsphere formation to single agent” value [1] was “resistant”, the “erlotinib resistance, ligation competent vs incompetent integrin αvβ3” value (FG and FG-β3 cells; FG cells transfected with WT β3 or D119A mutant) was “same degree of erlotinib resistance” and the “effect of αvβ3 expression” value (FG and FG-β3 cells) was “dramatically increased erlotinib resistance”. The “increase in tumor cell sensitivity to erlotinib after knockdown of αvβ3” value (PANC-1 cells) was 10 fold, the “erlotinib resistance of orthotopic pancreatic tumors with ectopic β3 expression” value ([5]; FG vs FG-β3 orthotopic tumors, systemic treatment) was “dramatically increased erlotinib resistance; also recorded: conferred erlotinib resistance” and the “increase in αvβ3 expression” value ([5]; orthotopic FG pancreatic tumors, four weeks of erlotinib treatment) was 10 fold. For the same molecule, the “EGFR phosphorylation in tumor lysates (immunoblot)” value ([5]; orthotopic FG tumors after 10 days of erlotinib) was “suppressed EGFR phosphorylation”, the time until moribund ([6]; erlotinib 100 mg/kg/day by oral gavage, start 3 weeks after tumor cell injection) was roughly 58 days and the development of resistance [6, 11] was “developed resistance”. For the same molecule, the “integrin αvβ3 expression compared with vehicle-treated tumors” value [6, 11] was “qualitative increase in integrin αvβ3 expression”, the “levels / activation of phosphorylated TBK1 and NF-κB” value [7] was “reduced; also recorded: decreased the activation” and the erlotinib response ([2]; H1650 cells, wildtype KRAS and mutant EGFR) was “resistant”. The erlotinib response ([2]; tumor cell lines with oncogenic KRAS: FG, H441, and CAPAN1) was “sensitive”, the “disease progression after days of erlotinib therapy” value (shortened to “disease progression after days”) ([8]; Patient 1) was 920 days and the “disease progression after days” value ([8]; Patient 2) was 92 days. For the same molecule, the “disease progression after days” value ([8]; Patient 3) was 120 days, the initial response ([8]; all 3 patients) was “partial response” and the “integrin β3 expression in biopsies after vs before erlotinib resistance” value ([8]; paired lung tumor biopsies, immunohistochemistry) was “qualitative increase in integrin β3 expression; also recorded: qualitatively higher”. The “αvβ3 (CD61) status of human lung cancer cells detected in the circulation” value [9] was “positive for αvβ3”, the “effect of β3 expression on drug response” value [4] was “reduced sensitivity” and the “integrin β3 expression in erlotinib resistant vs vehicle-treated tumors” value (HCC827 xenograft tumors) was “significantly higher”. The “integrin αvβ3 / β3 expression after prolonged erlotinib exposure in vitro” value (integrin αvβ3 (CD61)) was “the greater the expression level of αvβ3; also recorded: induction of β3 expression” and the “erlotinib resistance after knockdown of integrin β3” value [10] was “overcame erlotinib resistance”.

In the case of `Nc1ccn([C@@H]2O[C@H](CO)[C@@H](O)C2(F)F)c(=O)n1` [gemcitabine], the “effect of αvβ3 expression” value (FG and FG-β3 cells) is reported as “failed to protect cells”, the “impact of integrin β3 expression on resistance” value [2] is reported as “did not impact resistance” and the “effect of β3 expression on drug response” value [4] is reported as “did not impact the response”.

In the case of `CS(=O)(=O)CCNCc1ccc(-c2ccc3ncnc(Nc4ccc(OCc5cccc(F)c5)c(Cl)c4)c3c2)o1` [lapatinib], the “effect of β3 expression on drug response” value [4] is reported as “reduced sensitivity”.
